Experimental data reported in US11072592B2, “Small molecules that enable cartilage rejuvenation” (The Regents of the University of California, priority 2015, dated 2021).
Entries after “also recorded” stand apart in the source; their conditions may differ.

How the values were obtained:
[1] = tested on: adult human articular chondrocytes; test: Survival / apoptosis (Annexin V) of adult articular chondrocytes; type: cell-based; conditions: for chondrocytes survival in adult explants: LIF 50 ng/mL, CRM-423 10 uM
Procedure: FIGS. 28A-28I. Small molecule-mediated activation of a fetal-like molecular and functional phenotype in adult articular cartilage. (FIG. 28A) Adult human articular chondrocytes were incubated with or without RCGD 423 and levels of MYC and pSTAT3 were quantified relative to histone H3. (FIG. 28B) Levels of MYC and pSTAT3 protein were measured in pig adult articular chondrocytes to determine the effects of RCGD 423 in a dose- and time-dependent manner; histone H3 was used as a loading control. (FIG. 28C) Migration of adult human articular chondrocytes in a Transwell® assay was assessed in the presence and absence of RCGD 423. (FIG. 28D) Adult human articular chondrocytes were incubated with or without RCGD 423 in hydrogel for 24 hours and then apoptotic cells were quantitated via flow cytometry for Annexin V. (FIG. 28E) Single human adult articular chondrocytes were cultured for 5 weeks with or without stimulation with RCGD 423. (FIG. 28F) Proliferation in explants of adult pig articular cartilage in the absence or presence of RCGD 423 as shown by EdU incorporation. Explants of adult pig articular cartilage were incubated with EdU in the presence or absence of LIF to detect proliferating cells. Scale bars represent 25 μm. (FIG. 28G) Metabolic activity of human adult articular chondrocytes (ECAR and OCR) was assessed in the presence or absence of RCGD 423; the response in these parameters to stimulation with LIF is shown for comparison. […]
Only early passages of chondrocytes (passage 0-2) were used for experimentation to avoid de-differentiation and loss of cartilage phenotype (Wu et al., 2014). Cartilage explants were made using 1, 2 or 8 mm biopsy punch and wet weight of each explant determined prior to experimentation. […]
TdT-mediated dUTP nick-end labeling (TUNEL) or EdU assays were performed by using in situ cell death detection kit (TUNEL, Roche Diagnostics GmbH, Germany) or Click-iT® Assay Kit obtained from Invitrogen (Carlsbad, Calif.), respectively, as described in the manufacturer's protocol. […] After staining sections were analyzed using fluorescent microscopy. […]

[2] = tested on: MMP13, ADAMTS4 and ADAMTS5; test: Quantitative PCR of catabolic genes in adult pig articular chondrocytes; type: cell-based
Procedure: FIGS. 30A-30B. […] (FIG. 30A) Adult pig articular chondrocytes were cultured for 24 hours with the indicated cytokines or RCGD 423 and the levels of pSTAT3 and MYC were measured with respect to histone H3. Representative data for other proteins in the MAPK (p38 and MEK1/2), AKT (phospho-AKT; pAKT) or NF-KB (NF-KB p65) are also shown. (FIG. 30B) Levels of transcription of genes indicative of a catabolic response were determined via quantitative PCR in adult pig articular chondrocytes treated with OSM, IL-6, TNF-α, LIF or RCGD 423. Data are represented at mean±SD.
Cartilage degeneration is generally considered a feed-forward process, in which small losses of chondrocytes result in microenvironmental changes including induction of an inflammatory response and other pro-catabolic events (Hunziker, 2002). In turn, these alterations in the joint milieu promote production of matrix degrading proteins including MMPs (collagenases) and proteins of the ADAMTS family (aggrecanases). LIF has been implicated in promoting this cycle of matrix destruction during the pathogenesis of osteoarthritis (Hui et al., 2000; Lotz et al., 1992), although its role in this process has been controversial. In order to better understand the mechanism of action of LIF, RCGD 423 and known pro-inflammatory cytokines in the promotion of degeneration, we stimulated adult pig articular chondrocytes with these molecules and quantitated the levels of activated downstream proteins that mediate the cellular signaling response (FIG. 30A).
Total RNA was extracted using RNeasy Micro Kit (QIAGEN, Valencia, Calif.) according to the manufacturer's protocol. Quantitative reverse transcription PCR was performed using Bio-Rad T100 Thermal Cycler (Bio-Rad, Hercules, Calif.). Primer sequences are available upon request.

Compound: Brc1ccc(Nc2nc(-c3ccccc3)cs2)cc1 [RCGD 423, N-(4-Bromophenyl)-4-phenyl-1,3-thiazol-2-amine]
- chondrocytes survival in adult explants [1]: increase
- apoptosis (Annexin V) ([1]; adult human articular chondrocytes in hydrogel, 24 hours): decreased
- transcription of matrix degrading enzymes (MMP13, ADAMTS4 and ADAMTS5) [2]: no upregulation; also recorded: does not promote catabolism

Compound: LIF: interleukin 6 (IL-6)-class cytokine
- chondrocytes survival in adult explants [1]: increase; also recorded: promoted survival
- transcription of matrix degrading enzymes (MMP13, ADAMTS4 and ADAMTS5) [2]: neither cytokine resulted in substantial transcriptional upregulation
